Reference: publication PMC4717123, “The cytochrome P450 CYP6P4 is responsible for the high pyrethroid resistance in knockdown resistance-free Anopheles arabiensis” (Insect Biochemistry and Molecular Biology, 2016)
Read-outs that look alike come from different tables or passages of the source.

B1: recombinant CYP6P4 (Anopheles arabiensis) (protein)
chain: MDLLSYVLTAFVFVVSIAYLYLRSRHNYWRDRCFPYTRQKPHLLYGHMEQFQSKHASYINEELYWEFKNRGEPIGGMSMFFLPGLIVADPELVKSILVKDFSVFHDRGVFNDAKADPLSAHLFALEGHEWRVLRQKLTPTFTSGRMKQMFGTIQQVAGEFLKYMNEHCHREIEMKDVLARFTTDVIGTCAFGIECNTLKNPDSDFRKYGNKVFEQDTLLMLKFMFATTFKGLAKRIGMKLTDEGVERFFLQVVRETVEYREMNNVQRNDFMNLLLQIKNTGSLDGGDVPIKGAAGLTMNELAAQVFVFFLAGFETSSTTMNFCLYELAKNPDIQDRLREEIERAVEENGGEVTYDMVMNVQYLDNVINETLRKYPPIESLSRVPMRDYTVPGTKHVIPKDTFIQIPVYALHRDPEFYPEPDQFNPDRFLPEEVKKRHPYVFLPFGEGPRICIGLRFGVMQAKIGLITLLRNFRFTPSSQTPAKIVFDPKSFILSPSTGNYLKVDKI

Experiments:
CYP6P4 [1] = target: T1, CYP6P4 (Anopheles arabiensis, UniProt A0A0M4KNY0); experiment: In vitro metabolism assays with insecticides (percentage depletion, HPLC); type: in vitro ADME; settings: for metabolised at 1 h, 20 µM: Anopheles arabiensis, recombinant cyp6p4
T1 sequence (A0A0M4KNY0 1-506): B1 chain
T1 sequence (Q86QH5 1-679 partner): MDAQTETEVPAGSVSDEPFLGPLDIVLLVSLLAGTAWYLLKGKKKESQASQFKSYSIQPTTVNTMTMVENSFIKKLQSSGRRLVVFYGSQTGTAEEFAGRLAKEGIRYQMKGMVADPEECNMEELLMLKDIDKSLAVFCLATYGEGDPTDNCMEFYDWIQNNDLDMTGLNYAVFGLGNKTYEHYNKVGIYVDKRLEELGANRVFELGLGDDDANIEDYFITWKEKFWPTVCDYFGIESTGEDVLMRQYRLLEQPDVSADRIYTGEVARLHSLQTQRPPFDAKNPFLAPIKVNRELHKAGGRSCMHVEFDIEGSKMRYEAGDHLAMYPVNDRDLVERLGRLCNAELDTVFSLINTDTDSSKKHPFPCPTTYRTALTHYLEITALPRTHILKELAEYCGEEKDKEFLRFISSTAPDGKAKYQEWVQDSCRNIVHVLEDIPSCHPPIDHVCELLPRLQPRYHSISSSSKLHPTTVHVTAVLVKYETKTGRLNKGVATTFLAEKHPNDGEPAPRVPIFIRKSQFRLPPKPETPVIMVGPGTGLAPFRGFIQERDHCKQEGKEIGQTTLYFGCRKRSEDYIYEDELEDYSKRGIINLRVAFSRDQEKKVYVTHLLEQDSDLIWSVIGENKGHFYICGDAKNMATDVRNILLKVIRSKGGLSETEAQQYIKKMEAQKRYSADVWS
Description: 0.2 M Tris–HCl and NADPH-regeneration components were added to the bottom of 1.5 ml tube chilled on ice. Membranes expressing recombinant CYP6P4 and AgCPR (and reconstituted with cytochrome b5) were added to the side of the tube and pre-incubated for 5 min at 30 °C, with shaking at 1200 rpm. […] Reactions were quenched with 0.1 ml ice-cold methanol and incubated for 5 more minutes to precipitate protein. Tubes were then centrifuged at 16,000 rpm and 4 °C for 15 min, and 150 μl of supernatant transferred into HPLC vials for analysis. All reactions were carried out in triplicate with experimental samples (+NADPH) and negative controls (-NADPH). […] For the other insecticides, mobile phases were 65:35 (bendiocarb) and 60:40 v/v (propoxur and malathion) acetonitrile to water, respectively with column temperature of 40 °C for bendiocarb and propoxur. Bendiocarb and propoxur were detected at 205 nm and 270 nm respectively, whilst malathion was detected at 230 nm. Enzyme activity was calculated as percentage depletion (the difference in the amount of insecticide(s) remaining in the +NADPH tubes compared with the –NADPH) and a t-test used for statistical analysis.

[2] = tested on: An. arabiensis populations from Ndjamena; parameters: method as in Witzig et al., 2013; settings: Chad, 2009, ref Witzig et al., 2013; cited from earlier work
CYP6P4 [3] = target: T1, CYP6P4; experiment: Fluorogenic probes assay (O-dealkylation, DEF kinetics); type: biochemical; settings: 0-2 μM diethoxyfluorescein, 2 pmol enzyme, 10 min
Description: To find out whether there are differences in the degree of binding of recombinant CYP6P4 to different insecticides, membrane was also tested for O-dealkylation towards seven (7) fluorogenic probes: resorufin-based 7-ethoxyresurofin (7-ER), resurofin methyl ether (RME), resorufin-benzylether (RBE) and resorufin-pentylether (RPE); coumarin-based probes: 7-ethoxy-4-trifluoromethylcoumarin (7-EFC) and 7-methoxy-4-trifluoromethylcoumarin (MFC); and diethoxyfluorescein (DEF). […] Membranes were activated for 5 min at 37 °C in fluorescence spectrophotometer FLOUstar Omega (BMG LABTECH, Ortenberg, Germany) before 25 μl NADPH regeneration buffer (1 mM glucose-6-phosphate (G6P), 0.25 mM MgCl2, 0.1 mM NADP and 1 U/ml glucose-6-phosphate dehydrogenase (G6PDH) prepared in KPi (pH 7.4) was added. All reactions were conducted in three replicates with negative control (–NADPH) devoid of the regeneration buffer. Rate of fluorescent product formation for 7-ER, RBE and RME (ʎexc = 544 nm, ʎemi = 590 nm), 7-EFC and MFC (ʎexc = 410 nm, ʎemi = 535 nm) and DEF (ʎexc = 485 nm, ʎemi = 530 nm) was determined by linear regression of measurement between 2 and 10 min after start of the reaction.
For kinetics, 0–2 μM diethoxyfluorescein was assayed with 2 pmol of recombinant enzyme in a total volume of 250 μl. The protocol was as outlined above, with varying substrate concentration. […]

CYP6P4 [4] = target: T1, CYP6P4; experiment: Inhibition assay of CYP6P4 metabolism of diethoxyfluorescein by insecticides; type: biochemical; settings: 0.11 μM DEF substrate, 2 pmol CYP6P4, inhibitor 25-0.011 μM, 30 °C
Description: To assess differences in the degree of binding of the recombinant CYP6P4 to insecticides from different classes, inhibition assay was conducted with DEF and nine insecticides (inhibitors). […] 25 μl of pre-warmed regeneration buffer (7.8 mg glucose-6-phosphate, 0.25 mM MgCl2, 1.7 mg NADP, 6 U/ml glucose-6-phosphate dehydrogenase and 2% w/v NaHCO3) was incorporated into the wells. Fluorescence was monitored for 21 cycles at interval of 1 min with shaking at every step, at 30 °C. Results were analysed with GraphPad Prism software and inhibition at each inhibitor concentration and incubation time calculated as residual control activity towards DEF.

[5] = substrate: CC1(C)C(C=C(Cl)Cl)C1C(=O)OCc1cccc(Oc2ccccc2)c1; experiment: purified protein, by the assay type; type: biochemical, Anopheles arabiensis; settings: other: permethrin 3-30 μM, 30 min, 22.5 pmol recombinant protein
Description: Reactions were performed in triplicates both for + NADPH (experimental tubes) and –NADPH (negative control tubes). Km and Vmax were established from the plot of substrate concentrations against the initial velocities and fitting of the data to the Michaelis–Menten module using the least squares non-linear regression, as implemented in the GraphPad Prism 6.03 Software (GraphPad Inc., La Jolla, CA, USA).

[6] = 20 μM insecticide, 1 h incubation, 30 °C, +NADPH vs -NADPH

| Molecule | Percentage depletion (CYP6P4 [1]; [6]) | resistance/susceptibility status [2] | metabolised at 1 h, 20 µM (CYP6P4 [1]; [6]) [%] | other results |
| --- | --- | --- | --- | --- |
| CNC(=O)Oc1ccccc1OC(C)C [propoxur] | No activities | – | – | – |
| ClC1=C(Cl)[C@]2(Cl)[C@@H]3[C@@H]4C[C@@H]([C@H]5O[C@@H]45)[C@@H]3[C@@]1(Cl)C2(Cl)Cl [dieldrin] | – | susceptible | – | – |
| CC1(C)[C@H](C(=O)O[C@H](C#N)c2cccc(Oc3ccccc3)c2)[C@@H]1/C=C(\Cl)C(F)(F)F (racemic) [λ-cyhalothrin] | – | – | 57.8 | – |
| CCOc1ccc2c(c1)Oc1cc(OCC)ccc1C21OC(=O)c2ccccc21 [DEF, diethoxyfluorescein] | – | – | – | Kcat (maximal catalytic activity) (CYP6P4 [3]): 58.65 min⁻¹; Km (CYP6P4 [3]): 110 nM |
| CCOC(=O)CC(SP(=S)(OC)OC)C(=O)OCC (centres unmarked) [malathion] | No activities | susceptible | – | IC50 (CYP6P4 [4]): high IC50 values |
| CNC(=O)Oc1cccc2c1OC(C)(C)O2 [bendiocarb] | No activities | susceptible | – | IC50 (CYP6P4 [4]): high IC50 values |
| Cc1c(COC(=O)[C@@H]2[C@H](/C=C(\Cl)C(F)(F)F)C2(C)C)cccc1-c1ccccc1 (racemic) [bifenthrin] | 49.2% | – | – | – |
| CC1(C)[C@H](C(=O)O[C@H](C#N)c2cccc(Oc3ccccc3)c2)[C@@H]1C=C(Br)Br [deltamethrin] | – | – | < 2 | IC50 (CYP6P4 [4]; read-out: IC50): 2520 nM; mortality rate [2]: 90% |
| CC1(C)C(C=C(Cl)Cl)C1C(=O)OCc1cccc(Oc2ccccc2)c1 (centres unmarked) [permethrin] | – | – | 70.5 | IC50 (CYP6P4 [4]; read-out: IC50): 970 nM |
| CCOc1ccc(C(C)(C)COCc2cccc(Oc3ccccc3)c2)cc1 [etofenprox] | – | – | 24.9 | – |
| Clc1ccc(C(c2ccc(Cl)cc2)C(Cl)(Cl)Cl)cc1 [DDT] | – | resistant | – | Percentage depletion (CYP6P4 [1]; 20 μM DDT, 1 h, following addition of sodium cholate, p = 0.08, neither dicofol nor DDE detected): up to 20% |
| B1 | – | – | – | Km [5]: 8.07 µM; kcat [5]: 3.24 min⁻¹; kcat/Km [5]: 0.4008 min^−1μM^−1 |
